The nature of data set [1]: Plasma protein binding rate (mouse). The class given is in vitro ADME. The settings on record: 37° C. 6 h. Here is the method: Test Example 6. Assay of Plasma Protein Binding Rate
The objective of the experiment is to determine the plasma protein binding of the compounds of the Examples in plasma.
The compound of the Example was formulated into 1 mM solution A with DMSO;
The solution A was added to the plasma solution to obtain 5 μM solution B;
1) 200 μL of solution B was added to the inside of the membrane;
2) […] of PBS was added to the outside of the membrane;
3) Incubation in a water bath at 37° C. for 6 h;
4) The sample was diluted and analyzed by mass spectrometry.

Data set [2] can be described thus: Metabolic stability in liver microsome (rat). The format is in vitro ADME. The settings on record: rat liver microsome 0.5 mg/mL, compound 1 μM; for half-life at 1 μM: liver microsomes. Here is the method: (§1) Test Example 5. Assay of Metabolic Stability in Liver Microsome
(§2) The objective of the experiment is to determine the stability of the compounds of the Examples in liver microsome of mouse, rat, dog and human.
(§3) Formulation of the working solution of the compound: The stock solution of the compound was added to phosphate buffer, and the final concentration was 20 μM.
(§4) Liver microsome was diluted with 100 mM phosphate buffer to obtain a final concentration of 0.625 mg/mL.
(§5) NADPH (reduced nicotinamide adenine dinucleotide phosphate) and UDPGA (uridine diphosphate glucuronic acid) were weighed respectively, followed by addition of 100 mM phosphate buffer. The final concentrations were 20 mM.
(§6) 1 mg of Alamethicin was weighed, to which 200 μL of DMSO was added to obtain a 5 mg/mL solution. The solution was diluted with phosphate buffer to obtain a final concentration of 50 μg/mL.
(§7) 2.5 Formulation of the reaction stop solution Stop solution: Cold acetonitrile containing 100 ng/mL labetalol hydrochloride and 400 ng/mL tolbutamide as internal standards.
(§8) 400 μL of the prepared liver microsome, 25 μL of the working solution of the compound and 25 μL of Alamethicin were added to a 96-well plate successively, which was then pre-incubated at 37° C. for 10 min. 50 μL of the prepared NADPH/UDPGA was added to initiate the reaction, and the plate was incubated at 37° C. The total volume of the reaction system was 500 μL. The final contents of the components were as follows: […]

Data set [3] can be described thus: Pharmacokinetic assay in rats. As to conditions: male, rat, po, SD rats, p.o. 5 mg/kg, plasma, 0.5% CMC-Na (1% Tween 80); for AUC(0-t): read-out: Area under curve AUC0-t; for MRT inf: read-out: Average residence time MRT0-∞; for half-life: read-out: Half life t1/2 (converted); for Tmax: read-out: Peak time tmax; for Cmax: read-out: Plasma concentration Cmax. The class given is in vivo. As to the method:
Test Example 4. Pharmacokinetic Assay in Rats
SD rats were used as test animals. The pharmacokinetic behavior of the compounds of Examples was studied in rat body (plasma) by orally administration at a dose of 5 mg/kg.
Male SD rats (3 rats per group), purchased from Shanghai Jiesijie Laboratory Animal Co., LTD, with Certificate No.: SCXK (Shanghai) 2013-0006 N0.311620400001794.
(§9) 5 g of hydroxyethyl cellulose (HEC, CMC-Na, viscosity: 800-1200 Cps) was weighed and dissolved in 1000 mL of purified water, followed by addition of 10 g of Tween80.
After an overnight fast, male SD rats (3 rats per group) were administered p.o. with the test compound at a dose of 5 mg/kg and a volume of 10 mL/kg.
0.2 mL of blood was taken from the jugular vein of the rat before administration and at 0, 0.5, 1, 2, 4, 6, 8 and 24 hours after administration. The samples were stored in EDTA-K2 tubes, and centrifuged for 6 minutes at 4° C., 6000 rpm to separate the plasma. The plasma samples were stored at −80° C.
1) 160 μL of acetonitrile was added to 40 μL of the plasma sample for precipitation, and then the mixture was centrifuged at 3500×g for 5 to 20 minutes.
2) After the above process, 100 μL of the supernatant was taken to analyze the concentration of the test compound by LC/MS/MS.
2.7 Liquid Chromatography Analysis • Liquid chromatography condition: Shimadzu LC-20AD pump • Mass spectrometry condition: AB Sciex API 4000 mass spectrometer • Chromatographic column: phenomenex Gemiu 5 um C18 50×4.6 mm • Mobile phase: Eluent A was 0.1% formic acid in water, and Eluent B was acetonitrile • Flow rate: 0.8 mL/min • Elution time: 0-4.0 minutes, the eluent is as follows:
(§10) The main parameters of pharmacokinetics were calculated by WinNonlin 8.2.

Data set [4] is described as follows: Metabolic stability in liver microsome (mouse). As to conditions: mouse liver microsome 0.5 mg/mL, compound 1 μM; for half-life at 1 μM: liver microsomes, NADPH/UDPGA. The format is in vitro ADME. Here is the method: as §1, §2, §3, §4, §5, §6, §7, §8
For orientation: Liver microsomes are vesicles of endoplasmic reticulum, rich in cytochrome P450 enzymes.

Data set [5] can be described thus: Pharmacokinetic assay in Balb/C mice. The class given is in vivo. The settings on record: male, mouse, po, p.o. 5 mg/kg, plasma, 0.5% CMC-Na (1% Tween 80); for AUC(0-t): read-out: Area under curve AUC0-t; for MRT inf: read-out: Average residence time MRT0-∞; for half-life: read-out: Half life t1/2 (converted); for Tmax: read-out: Peak time tmax; for Cmax: read-out: Plasma concentration Cmax. As to the method: Test Example 3. Pharmacokinetic Assay in Balb/C Mice
Balb/C mice were used as test animals. The pharmacokinetic behavior of the compounds of Examples was studied in mouse body (plasma) by orally administration at a dose of 5 mg/kg.
Male Balb/C mice (6 mice per group), purchased from Shanghai Jiesijie Laboratory Animal Co., LTD, with Certificate No.: SCXK (Shanghai) 2013-0006 N0.311620400001794.
as §9
After an overnight fast, male Balb/C mice were administered p.o. with the test compound at a dose of 5 mg/kg and a volume of 10 mL/kg.
0.04 mL of blood was taken from the orbit of the mouse before administration and at 0, 0.5, 1, 2, 4, 6, 8 and 24 hours after administration. The samples were stored in EDTA-K2 tubes, and centrifuged for 6 minutes at 4° C., 6000 rpm to separate the plasma. The plasma samples were stored at −80° C.
1) 160 μL of acetonitrile was added to 20 μL of the plasma sample for precipitation, and then the mixture was centrifuged at 3500×g for 5 to 20 minutes. 2) After the above process, 100 μL of the supernatant was taken to analyze the concentration of the test compound by LC/MS/MS.
2.7 Liquid Chromatography Analysis • Liquid chromatography condition: Shimadzu LC-20AD pump • Mass spectrometry condition: AB Sciex API 4000 mass spectrometer • Chromatographic column: phenomenex Gemiu 5 um C18 50×4.6 mm • Mobile phase: Eluent A was 0.1% formic acid in water, and Eluent B was acetonitrile • Flow rate: 0.8 mL/min • Elution time: 0-4.0 minutes the eluent is as follows:
as §10

The results in this text go back to patent US20230118497A1, “PYRAZOLE-CONTAINING POLYCYCLIC DERIVATIVE INHIBITOR, PREPARATION METHOD THEREFOR AND APPLICATION THEREOF” (Shanghai Hansoh Biomedical Co., Ltd., priority 2019, published 2023).

A word on the fraction unbound: it is the share of the substance not bound to proteins or other matrix. Low readings indicate extensive binding, high ones weak binding. For orientation: Tmax means the time from dosing to the highest level.

In data set [1], `CCc1cc2n(CC(=O)Nc3ccc(F)cn3)c(=O)c3ccc(C(F)(F)F)nc3n2n1` [Example 34, 2-(2-Ethyl-5-oxo-8-(trifluoromethyl)pyrazolo[1,5-a]pyrido[3,2-e]pyrimidin-4(5H)-yl)-N-(5-fluoropyridin-2-yl)acetamide] yielded a fraction unbound at 6 h, 5 μM of 0.043. Moreover, the half-life at 1 μM in data set [2] (NADPH/UDPGA) is 28.9 h. For the same compound, the “Remaining (%, 60 min)” value in data set [2] is reported as 104.4%. Also, in data set [3], the AUC(0-t) turned out to be 5780 ng·h/mL, the MRT inf stood at 6.2 h, the half-life is 3.5 h and the Tmax was determined as 4 h. For the same compound, the Cmax in data set [3] was determined as 904 ng/mL. In data set [4], the half-life at 1 μM was 3.11 h and the “Remaining (%, 60 min)” value was 81.3%. Moreover, in data set [5], the AUC(0-t) is 7580 ng·h/mL, the MRT inf stood at 2.3 h, the half-life is 1.4 h and the Tmax worked out at 1 h. Also, the Cmax in data set [5] was found to be 2360 ng/mL.

As for `O=C(Cn1c(=O)c2ccc(C(F)(F)F)nc2n2nc(Br)cc12)Nc1ccc(F)cn1` [Example 61-A, 2-(2-bromo-5-oxo-8-(trifluoromethyl)pyrazolo[1,5-a]pyrido[3,2-e]pyrimidin-4(5H)-yl)-N-(5-fluoropyridin-2-yl)acetamide], in data set [1], the fraction unbound at 6 h, 5 μM came to 0.044. The half-life at 1 μM in data set [2] (NADPH/UDPGA) is 15.7 h. For the same compound, in data set [2], the “Remaining (%, 60 min)” value is recorded as 102.3%. For the same compound, in data set [3], the AUC(0-t) was found to be 12000 ng·h/mL, the MRT inf was 5.8 h, the half-life is 8 h and the Tmax was found to be 2 h. Moreover, in data set [3], the Cmax came out at 1550 ng/mL. In data set [4], the half-life at 1 μM stood at 6.82 h and the “Remaining (%, 60 min)” value worked out at 92.5%. In data set [5], the AUC(0-t) is 30500 ng·h/mL, the MRT inf came out at 5.6 h, the half-life was 4.6 h and the Tmax amounted to 2 h. For the same compound, the Cmax in data set [5] turned out to be 3430 ng/mL.

For the compound `N#Cc1cc2n(CC(=O)Nc3ccc(F)cn3)c(=O)c3ccc(C(F)(F)F)nc3n2n1` [Example 68, 2-(2-Cyano-5-oxo-8-(trifluoromethyl)pyrazolo[1,5-a]pyrido[3,2-e]pyrimidin-4(5H)-yl)-N-(5-fluoropyridin-2-yl)acetamide], the fraction unbound at 6 h, 5 μM in data set [1] is 0.162. For the same compound, the “Remaining (%, 60 min)” value in data set [2] worked out at 106.4%. Besides, the t1/2 result in data set [2] (NADPH/UDPGA) is on record as “∞”. In data set [3], the AUC(0-t) amounted to 9850 ng·h/mL, the MRT inf amounted to 3.5 h, the half-life is 1.8 h and the Tmax came out at 4 h. The Cmax in data set [3] was 1880 ng/mL. In data set [4], the half-life at 1 μM came out at 2.75 h and the “Remaining (%, 60 min)” value is 91.6%. In data set [5], the AUC(0-t) turned out to be 10200 ng·h/mL, the MRT inf was 3.8 h, the half-life is 1.8 h and the Tmax was determined as 2 h. Besides, the Cmax in data set [5] came to 1830 ng/mL.

With `O=C(Cn1c(=O)c2ccc(C(F)(F)F)nc2n2nccc12)Nc1ccc(F)cn1` [Example 78, N-(5-Fluoropyridin-2-yl)-2-(5-oxo-8-(trifluoromethyl)pyrazolo[1,5-a]pyrido[3,2-e]pyrimidin-4(5H)-yl)acetamide], the fraction unbound at 6 h, 5 μM in data set [1] came out at 0.084. In addition, the half-life at 1 μM in data set [2] (NADPH/UDPGA) worked out at 32.7 h. In addition, in data set [2], the “Remaining (%, 60 min)” value was determined as 98.9%. Besides, in data set [3], the AUC(0-t) is 6810 ng·h/mL, the MRT inf is 3.7 h, the half-life was 1.7 h and the Tmax turned out to be 2 h. Moreover, in data set [3], the Cmax amounted to 1220 ng/mL. In data set [4], the half-life at 1 μM is 568 h and the “Remaining (%, 60 min)” value was 99.3%. Besides, in data set [5], the AUC(0-t) came out at 5040 ng·h/mL, the MRT inf turned out to be 2.5 h, the half-life is 1.6 h and the Tmax was determined as 1 h. In addition, in data set [5], the Cmax is 1290 ng/mL.

Turning to `N#Cc1cnn2c3nc(C(F)(F)F)ccc3c(=O)n(CC(=O)Nc3ccc(F)cn3)c12` [Example 80, 2-(3-Cyano-5-oxo-8-(trifluoromethyl)pyrazolo[1,5-a]pyrido[3,2-e]pyrimidin-4(5H)-yl)-N-(5-fluoropyridin-2-yl)acetamide], the fraction unbound at 6 h, 5 μM in data set [1] was 0.256. Also, in data set [3], the AUC(0-t) was 21300 ng·h/mL, the MRT inf is 13.6 h, the half-life was 11.3 h and the time of peak concentration (Tmax) turned out to be 4 h. Further, the Cmax in data set [3] was 2190 ng/mL.
